Test results as given in patent US11773132B2, “Cyclic di-nucleotides as stimulator of interferon genes modulators” (Beijing Xuanyi PharmaSciences Co., Ltd., priority 2017, dated 2023).
Blank lines part the entries; values can stand above or below the compound they belong to.

Columns and labels:
Assay type in all cases: cell-based
hSTING R232 [1] = target: T1, hSTING R232 (Homo sapiens, UniProt Q86WV6, H232R); assay: 293T-Dual hSTING R232 cells, interferon-β expression (Quanti-Luc); conditions: 293T-Dual hSTING R232 cell line, 24 h, read-out: IFNb EC50
T1 construct: host or cells: 293T-Dual hSTING R232 cells
Method: (§1) A test compound with a serial of dilution was prepared in complete medium, and 50 μL of the compound were added to the corresponding well, and incubated with the cells at 37° C. incubator for 24 hr.
To evaluate the effect on interferon-β expression, 20 μL of cell culture supernatant were transferred into a fresh 96-half area-well white plate, 30 μL of Quanti-Luc were added to each well, and luminescence was measured immediately with a luminometer. Four parameter logistic equation was used to calculate EC50 (Table 4).

hSTING R232 [2] = target: T1, hSTING R232; assay: 293T-Dual hSTING R232 cells, IRF activation (Quanti-Blue); conditions: 293T-Dual hSTING R232 cell line, 24 h, OD 620 nm
Method: as §1
To determine the effect on interferon regulatory factor (IRF) activation, 20 μL of cell culture supernatant was transferred into a fresh 96-well plate, 150 μL of Quanti-Blue was added to each well and incubated at 37° C. for 25 min. OD at 620 nm was recorded, and EC50 was calculated with 4 parameter logistic equation.

Human STING [3] = target: T2, Human STING (Homo sapiens, UniProt Q86WV6, G230A/H232R/R293Q/R71H); assay: EC50 in THP1-Dual cells, NF-kB reporter (QUANTI-Blue); conditions: THP1 cell line, 24 h, OD620, read-out: ECs50 NF-kB
T2 construct: host or cells: THP1-Dual cells (human monocytic reporter line)
Method: (§2) THP1-Dual cells (obtained from Invivogen) are maintained in RPM11640 medium with 100 µg/ml of Zeocin and 10 µg/ml of blasticidin at 37° C., 5% CO2, compounds were dissolved in sterile PBS (pH7.4) as 20 mM, 0.5×10^6 cells/ml of THP-1 Dual cells were incubated with indicated concentrations of a compound for 24 hours at 37° C., 5% CO2 incubator. QUANTI-Luc and QUANTI-Blue were prepared and used following the manufacturer's instructions. 10 ul of cell culture supernatant were mixed with QUANTI-Luc and immediately measured using Luminometer; 20 ul of supernatant were mixed with QUANTI-Blue, and incubated at 37° C. for 30 minutes, and read at OD620. EC50 was calculated using Prism with 4-parameter dose-response curve fitting (Table 3).

Human STING [4] = target: T2, Human STING; assay: EC50 in THP1-Dual cells, IRF3 reporter (QUANTI-Luc); conditions: THP1 cell line, 24 h
Method: as §2

T1 sequence (Q86WV6 whole entry H232R): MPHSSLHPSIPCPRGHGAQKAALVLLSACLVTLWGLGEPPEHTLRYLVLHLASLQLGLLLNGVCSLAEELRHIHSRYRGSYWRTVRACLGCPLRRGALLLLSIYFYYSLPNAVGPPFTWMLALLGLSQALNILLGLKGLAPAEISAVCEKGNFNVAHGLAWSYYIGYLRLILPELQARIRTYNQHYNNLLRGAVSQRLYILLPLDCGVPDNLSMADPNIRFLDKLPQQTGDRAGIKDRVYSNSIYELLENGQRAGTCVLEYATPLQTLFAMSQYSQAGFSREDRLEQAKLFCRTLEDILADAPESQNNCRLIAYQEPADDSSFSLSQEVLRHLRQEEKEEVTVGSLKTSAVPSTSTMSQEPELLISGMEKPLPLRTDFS
T2 sequence (Q86WV6 whole entry R71H/G230A/H232R/R293Q): as the sequence (Q86WV6 whole entry H232R) above, with R71H, G230A, R293Q counted along it

SMILES: BP1(=O)OC[C@H]2O[C@@H](n3cnc4c(N)ncnc43)[C@H](F)[C@@H]2OP(=O)(S)OC[C@H]2O[C@@H](n3cnc4c(N)ncnc43)[C@H](O1)C2F (some centres unmarked) [Mixtures of H1, H2, H3, and H4]
EC50 (hSTING R232 [1]): 84.4 µM | EC50 (hSTING R232 [2]): 33.6 µM | EC50 (Human STING [3]): > 100 µM | EC50 (Human STING [4]): > 100 µM

SMILES: BP1(=O)OCC2O[C@@H](n3cnc4c(N)ncnc43)[C@H](F)[C@@H]2OP(=O)(S)OC[C@H]2O[C@@H](n3cnc4c(=O)[nH]c(N)nc43)[C@H](F)[C@@H]2O1 (single isomer, unassigned) [Compound C4]
EC50 (hSTING R232 [1]): 0.7 µM | EC50 (hSTING R232 [2]): 0.34 µM | EC50 (Human STING [3]): 6.29 µM | EC50 (Human STING [4]): 0.63 µM

SMILES: BP1(=O)OC[C@H]2O[C@@H](n3cnc4c(=O)[nH]c(N)nc43)[C@H](F)[C@@H]2OP(=O)(S)OCC2O[C@@H](n3cnc4c(N)ncnc43)[C@H](F)[C@@H]2O1 (single isomer, unassigned) [Compound B2]
EC50 (hSTING R232 [1]): 29.1 µM | EC50 (hSTING R232 [2]): 9.82 µM | EC50 (Human STING [3]): 74.6 µM | EC50 (Human STING [4]): 14.7 µM

SMILES: BP1(=O)OCC2O[C@@H](n3cnc4c(N)ncnc43)[C@H](F)[C@@H]2OP(=O)(S)OC[C@H]2O[C@@H](n3cnc4c(=O)[nH]c(N)nc43)[C@H](F)[C@@H]2O1 (single isomer, unassigned) [Compound C2]
EC50 (hSTING R232 [1]): 0.43 µM | EC50 (hSTING R232 [2]): 0.23 µM | EC50 (Human STING [3]): 4.93 µM | EC50 (Human STING [4]): 0.43 µM

SMILES: BP1(=O)OCC2O[C@@H](n3cnc4c(N)ncnc43)[C@H](F)[C@@H]2OP(=O)(O)OC[C@H]2O[C@@H](n3cnc4c(=O)[nH]c(N)nc43)[C@H](F)[C@@H]2O1 (stereo partly drawn) [Compound F1, ((2R,3R,3aR,5R,7aS,9R,10R,10aR,14aR)-2-(2-amino-6-oxo-1,6-dihydro-9H-purin-9-yl)-9-(6-amino-9H-purin-9-yl)-3,10-difluoro-12-hydroxy-5,12-dioxidooctahydro-2H,7H-difuro[3,2-d:3′,2′-j][1,3,7,9]tetraoxa[2,8]diphosphacyclododecin-5-yl)trihydroborate]
EC50 (hSTING R232 [1]): 2.44 µM | EC50 (hSTING R232 [2]): 0.63 µM | EC50 (Human STING [3]): 6.59 µM | EC50 (Human STING [4]): 1.16 µM

SMILES: BP1(=O)OCC2O[C@@H](n3cnc4c(N)ncnc43)[C@H](F)[C@@H]2OP(=O)(O)OC[C@H]2O[C@@H](n3cnc4c(=O)[nH]c(N)nc43)[C@H](F)[C@@H]2O1 (stereo partly drawn) [Compound F2, ((2R,3R,3aR,5R,7aS,9R,10R,10aR,14aR)-2-(2-amino-6-oxo-1,6-dihydro-9H-purin-9-yl)-9-(6-amino-9H-purin-9-yl)-3,10-difluoro-12-hydroxy-5,12-dioxidooctahydro-2H,7H-difuro[3,2-d:3′,2′-j][1,3,7,9]tetraoxa[2,8]diphosphacyclododecin-5-yl)trihydroborate]
EC50 (hSTING R232 [1]): 2.78 µM | EC50 (hSTING R232 [2]): 1.2 µM | EC50 (Human STING [3]): 10 µM | EC50 (Human STING [4]): 1.56 µM

SMILES: BP1(=O)OCC2O[C@@H](n3cnc4c(N)ncnc43)[C@H](F)[C@@H]2OP(=O)(S)OC[C@H]2O[C@@H](n3cnc4c(=O)[nH]c(N)nc43)[C@H](F)[C@@H]2O1 (single isomer, unassigned) [Compound C1]
EC50 (hSTING R232 [1]): 75 µM | EC50 (hSTING R232 [2]): 34.3 µM | EC50 (Human STING [3]): 67.1 µM | EC50 (Human STING [4]): 88.4 µM

SMILES: BP1(=O)OCC2O[C@@H](n3cnc4c(N)ncnc43)[C@H](F)[C@@H]2OP(=O)(S)OC[C@H]2O[C@@H](n3cnc4c(=O)[nH]c(N)nc43)[C@H](F)[C@@H]2O1 (single isomer, unassigned) [Compound C3]
EC50 (hSTING R232 [1]): 0.16 µM | EC50 (hSTING R232 [2]): 0.085 µM | EC50 (Human STING [3]): 4.56 µM | EC50 (Human STING [4]): 0.37 µM

SMILES: BP1(=O)OC[C@H]2O[C@@H](n3cnc4c(=O)[nH]c(N)nc43)[C@H](F)[C@@H]2OP(=O)(S)OCC2O[C@@H](n3cnc4c(N)ncnc43)[C@H](F)[C@@H]2O1 (single isomer, unassigned) [Compound B4]
EC50 (hSTING R232 [1]): 2.27 µM | EC50 (hSTING R232 [2]): 0.34 µM | EC50 (Human STING [3]): 7.61 µM | EC50 (Human STING [4]): 0.61 µM

SMILES: BP1(=O)OC[C@H]2O[C@@H](n3cnc4c(=O)[nH]c(N)nc43)[C@H](F)[C@@H]2OP(=O)(S)OCC2O[C@@H](n3cnc4c(N)ncnc43)[C@H](F)[C@@H]2O1 (single isomer, unassigned) [Compound B1]
EC50 (hSTING R232 [1]): 37.5 µM | EC50 (hSTING R232 [2]): 11.8 µM | EC50 (Human STING [3]): > 100 µM | EC50 (Human STING [4]): 28.2 µM

SMILES: BP1(=O)OC[C@H]2O[C@@H](n3cnc4c(=O)[nH]c(N)nc43)[C@H](F)[C@@H]2OP(=O)(S)OCC2O[C@@H](n3cnc4c(N)ncnc43)[C@H](F)[C@@H]2O1 (single isomer, unassigned) [Compound B3]
EC50 (hSTING R232 [1]): 2.97 µM | EC50 (hSTING R232 [2]): 0.32 µM | EC50 (Human STING [3]): 5.22 µM | EC50 (Human STING [4]): 0.91 µM

Other lines, results leading:

EC50 (hSTING R232 [1]): 11.2 µM | EC50 (hSTING R232 [2]): 5.43 µM | EC50 (Human STING [3]): 34.7 µM | EC50 (Human STING [4]): 6.27 µM
SMILES: B[P@]1(=O)OC[C@H]2O[C@@H](n3cnc4c(N)ncnc43)[C@H](F)[C@@H]2OP(=O)(O)OC[C@H]2O[C@@H](n3cnc4c(N)ncnc43)[C@H](O1)C2F (some centres unmarked) [Compound I2]

EC50 (hSTING R232 [1]): 33 µM | EC50 (hSTING R232 [2]): 15 µM | EC50 (Human STING [3]): 72.6 µM | EC50 (Human STING [4]): 23 µM
SMILES: [BH3-][P+]1(O)OCC2OC(n3cnc4c(N)ncnc43)C(OP(=O)(O)OCC3OC(n4cnc5c(N)ncnc54)C(F)C3O1)C2F (single isomer, unassigned) [Compound K2]

EC50 (hSTING R232 [1]): 12.8 µM | EC50 (hSTING R232 [2]): 9.68 µM | EC50 (Human STING [3]): 29 µM | EC50 (Human STING [4]): 13.9 µM
SMILES: B[P@]1(=O)OC[C@H]2O[C@@H](n3cnc4c(N)ncnc43)[C@H](F)[C@@H]2OP(=O)(O)OC[C@H]2O[C@@H](n3cnc4c(N)ncnc43)[C@H](O1)C2F (some centres unmarked) [Compound I1]

EC50 (hSTING R232 [1]): 0.92 µM | EC50 (hSTING R232 [2]): 0.41 µM | EC50 (Human STING [3]): 4.3 µM | EC50 (Human STING [4]): 0.63 µM
SMILES: BP1(=O)OC[C@H]2O[C@@H](n3cnc4c(=O)[nH]c(N)nc43)[C@H](F)[C@@H]2OP(=O)(O)OCC2O[C@@H](n3cnc4c(N)ncnc43)[C@H](F)[C@@H]2O1 (stereo partly drawn) [Compound G1, ((2R,3R,3aR,5R,7aR,9R,10R,10aR,14aS)-9-(2-amino-6-oxo-1,6-dihydro-9H-purin-9-yl)-2-(6-amino-9H-purin-9-yl)-3,10-difluoro-12-hydroxy-5,12-dioxidooctahydro-2H,7H-difuro[3,2-d:3′,2′-j][1,3,7,9]tetraoxa[2,8]diphosphacyclododecin-5-yl)trihydroborate]

EC50 (hSTING R232 [1]): 1.77 µM | EC50 (hSTING R232 [2]): 0.94 µM | EC50 (Human STING [3]): 8.52 µM | EC50 (Human STING [4]): 1.08 µM
SMILES: BP1(=O)OC[C@H]2O[C@@H](n3cnc4c(=O)[nH]c(N)nc43)[C@H](F)[C@@H]2OP(=O)(O)OCC2O[C@@H](n3cnc4c(N)ncnc43)[C@H](F)[C@@H]2O1 (stereo partly drawn) [Compound G2, ((2R,3R,3aR,5R,7aR,9R,10R,10aR,14aS)-9-(2-amino-6-oxo-1,6-dihydro-9H-purin-9-yl)-2-(6-amino-9H-purin-9-yl)-3,10-difluoro-12-hydroxy-5,12-dioxidooctahydro-2H,7H-difuro[3,2-d:3′,2′-j][1,3,7,9]tetraoxa[2,8]diphosphacyclododecin-5-yl)trihydroborate]

EC50 (hSTING R232 [1]): 2.3 µM | EC50 (hSTING R232 [2]): 0.72 µM | EC50 (Human STING [3]): 7.47 µM | EC50 (Human STING [4]): 0.91 µM
SMILES: [BH3-][P+]1(O)OCC2OC(n3cnc4c(N)ncnc43)C(OP(=O)(O)OCC3OC(n4cnc5c(N)ncnc54)C(F)C3O1)C2F (single isomer, unassigned) [Compound K1]
